According to US12275684B2, “Methods for making and using endoxifen” (Atossa Therapeutics, Inc., priority 2017, dated 2025):

Assay: Placebo controlled, dose escalation pharmacokinetic study of oral (Z)-Endoxifen capsules (serum endoxifen; incl. accumulation ratios and dose linearity)
Type: in vivo, human
Design: Serum concentration, Maximum / Serum concentration, GeoMean / Serum concentration, Mean / Serum concentration, Median / terminal rate constant: unit not given here
Conditions: for AUC24hr / AUC to last time point / AUC(0-inf): in ng·h/mL
Description: An objective of the study was to assess the safety and tolerability of oral (Z)-Endoxifen when administered […] orally as a capsule to healthy female volunteers. A secondary objective was to assess the pharmacokinetics of multiple doses of oral (Z)-Endoxifen in the subjects.
Generally, healthy female volunteers aged ≥18 years and ≤65 years were enrolled. 24 participants were enrolled in 3 cohorts and will be administered study drug orally. Three dose levels of orally administered (Z)-Endoxifen were investigated in 3 cohorts. In each cohort participants were randomized to receive an oral (Z)-Endoxifen or placebo in a blinded fashion. Enteric-resistant capsules used in the study were designed as delayed release capsules to resist rupture for at least 30 minutes, but typically, for about 2 hours, under gastric conditions and then open fully in intestinal fluid (DRCaps; Capsugel, a Lonza Company, USA). Enteric-resistant (Swedish Orange size Zero (0); Capsugel, USA) DRCaps capsules manually filled with 1, 2 or 4 mg of (Z)-endoxifen neat in compliance with GMP requirements were used. Placebo capsules contained microcrystalline cellulose an inert common capsule and tablet excipient.
Each cohort enrolled 8 participants, with 6 participants receiving (Z)-Endoxifen 1 mg capsules orally at 1 mg (Cohort 1), 2 mg (Cohort 2) or 4 mg (Cohort 3) doses and 2 participants receiving matching placebo capsules. In Cohort 1 (Dose Level=1 mg) two participants (sentinels) were dosed 24 hours prior to the remaining participants. One sentinel was dosed with (Z)-Endoxifen and the other with placebo. The remaining six participants in Cohort 1 were dosed as no safety concerns were identified in the sentinel participants. The non-sentinel participants in Cohort 1 were admitted to the clinical research facility at least one day later than the sentinels. There were no sentinels in Cohorts 2 and 3.
Participant engagement in this study was for a period of 56 days. These included a 28 day screening period, and a 7 day post treatment period for Pharmacokinetic (PK) sampling. There were two confinement periods, one at the beginning and one at the end of the dosing periods. Participants were confined to the clinical facility on Days-1 through to Day 2 and Days 21 and 22. If participants were to experience any clinically significant adverse events during the study, they would have been required to remain in the clinical facility for further observation at the discretion of the Principal Investigator (PI).
Healthy female volunteers were screened within 28 days prior to commencement of dosing. Participants were admitted to the clinical facility on Day-1 for up to 3 days. The first dose of (Z)-Endoxifen or placebo capsules was administered on Day 1. Following completion of all safety assessments and sampling for PK analyses, participants were discharged from the clinical facility on Day 2. The first dose on Day 1 was followed by a 6-day treatment free period (Days 2-7). Each participant returned to the clinical facility for PK blood draws and safety assessments during the treatment free period on study Days 4 and 6. On Day 8 participants commenced daily administration of (Z)-Endoxifen capsules or placebo capsules for 14 consecutive days (Days 8-21). Participants were supplied with study drug capsules and asked to self administer daily. Participants visited the clinical facility on Days 11, 14 and 17, prior to dose administration, for PK blood draws and safety assessments. On the morning of Day 21 each participant returned to the clinical facility prior to dose administration and were confined to the facility until Day 22 to allow for the collection of PK blood draws and safety assessments. The Day 21 dose was the last administration of study drug. Participants were discharged from the clinical facility on Day 22 and returned for PK blood draws and safety assessments on study Days 24, 26, and 28. […]

[1] = Day 1, dose 4 mg oral, Maximum, N 6
[2] = Day 1, dose 4 mg oral, Minimum, N 6
[3] = Day 21, dose 2 mg oral once daily, GeoMean, N 6
[4] = Day 21, dose 2 mg oral once daily, Maximum, N 6
[5] = Day 21, dose 2 mg oral once daily, Mean, N 6
[6] = Day 21, dose 2 mg oral once daily, Median, N 6
[7] = Day 21, dose 2 mg oral once daily, Minimum, N 6
[8] = Day 21, dose 4 mg oral once daily, GeoMean, N 6
[9] = Day 21, dose 4 mg oral once daily, Maximum, N 6
[10] = Day 21, dose 4 mg oral once daily, Mean, N 6
[11] = Day 21, dose 4 mg oral once daily, Median, N 6
[12] = Day 21, dose 4 mg oral once daily, Minimum, N 6

CL/F, Min (Day 1, 1 mg, N = 5): 1.35 L/h | Cmax, Max (Day 1, 1 mg, N = 5): 0.012 µg/mL | Cmax, Min (Day 1, 1 mg, N = 5): 0.007 µg/mL | Kel, GeoMean (Day 1, 1 mg, N = 5): 0.015 h⁻¹ | Kel, Max (Day 1, 1 mg, N = 5): 0.018 h⁻¹ | Kel, Mean (Day 1, 1 mg, N = 5): 0.015 h⁻¹ | Kel, Median (Day 1, 1 mg, N = 5): 0.015 h⁻¹ | Kel, Min (Day 1, 1 mg, N = 5): 0.013 h⁻¹ | Thalf, GeoMean (Day 1, 1 mg, N = 5): 45.6 h | Thalf, Max (Day 1, 1 mg, N = 5): 54.4 h | Thalf, Mean (Day 1, 1 mg, N = 5): 46.1 h | Thalf, Median (Day 1, 1 mg, N = 5): 47.2 h | Thalf, Min (Day 1, 1 mg, N = 5): 37.5 h | Tmax, Max (Day 1, 1 mg, N = 5): 8.08 h | Tmax, Min (Day 1, 1 mg, N = 5): 2.0 h | CL/F, GeoMean (Day 1, 2 mg, N 6): 1.85 L/h | CL/F, Maximum (Day 1, 2 mg, N 6): 2.65 L/h | CL/F, Mean (Day 1, 2 mg, N 6): 1.89 L/h | CL/F, Median (Day 1, 2 mg, N 6): 1.83 L/h | CL/F, Minimum (Day 1, 2 mg, N 6): 1.34 L/h | Cmax, Maximum (Day 1, 2 mg, N 6): 0.022 µg/mL | Cmax, Minimum (Day 1, 2 mg, N 6): 0.013 µg/mL | Kel, GeoMean (Day 1, 2 mg, N 6): 0.015 h⁻¹ | Kel, Maximum (Day 1, 2 mg, N 6): 0.018 h⁻¹ | Kel, Mean (Day 1, 2 mg, N 6): 0.015 h⁻¹ | Kel, Median (Day 1, 2 mg, N 6): 0.016 h⁻¹ | Kel, Minimum (Day 1, 2 mg, N 6): 0.010 h⁻¹ | Thalf, GeoMean (Day 1, 2 mg, N 6): 47.7 h | Thalf, Maximum (Day 1, 2 mg, N 6): 68.1 h | Thalf, Mean (Day 1, 2 mg, N 6): 49.0 h | Thalf, Median (Day 1, 2 mg, N 6): 44.0 h | Thalf, Minimum (Day 1, 2 mg, N 6): 37.8 h | Tmax, Minimum (Day 1, 2 mg, N 6): 3.00 h | terminal rate constant (Day 1, dose 4 mg oral, GeoMean, N 6): 0.017 | Cmax [1]: 0.062 µg/mL | Tmax [1]: 10.00 h | apparent terminal half life (t½) [1]: 56.0 h | terminal rate constant [1]: 0.022 | AUC24hr [1]: 1116 | AUC to last time point [1]: 3574 | AUC(0-inf) [1]: 4624 | terminal rate constant (Day 1, dose 4 mg oral, Mean, N 6): 0.017 | terminal rate constant (Day 1, dose 4 mg oral, Median, N 6): 0.017 | Cmax [2]: 0.014 µg/mL | Tmax [2]: 3.00 h | apparent terminal half life (t½) [2]: 31.6 h | terminal rate constant [2]: 0.012 | AUC24hr [2]: 258 | AUC to last time point [2]: 691 | AUC(0-inf) [2]: 736 | CL/F, GeoMean (Day 21, 1 mg, N = 5): 2.32 L/h | CL/F, Maximum (Day 21, 1 mg, N = 5): 4.03 L/h | CL/F, Mean (Day 21, 1 mg, N = 5): 2.49 L/h | CL/F, Median (Day 21, 1 mg, N = 5): 1.90 L/h | CL/F, Minimum (Day 21, 1 mg, N = 5): 1.57 L/h | Cmax, Maximum (Day 21, 1 mg, N = 5): 0.034 µg/mL | Cmax, Minimum (Day 21, 1 mg, N = 5): 0.014 µg/mL | Kel, GeoMean (Day 21, 1 mg, N = 5): 0.013 h⁻¹ | Kel, Maximum (Day 21, 1 mg, N = 5): 0.017 h⁻¹ | Kel, Mean (Day 21, 1 mg, N = 5): 0.014 h⁻¹ | Kel, Median (Day 21, 1 mg, N = 5): 0.014 h⁻¹ | Kel, Minimum (Day 21, 1 mg, N = 5): 0.011 h⁻¹ | Thalf, GeoMean (Day 21, 1 mg, N = 5): 51.7 h | Thalf, Maximum (Day 21, 1 mg, N = 5): 65.8 h | Thalf, Mean (Day 21, 1 mg, N = 5): 52.6 h | Thalf, Median (Day 21, 1 mg, N = 5): 49.3 h | Thalf, Minimum (Day 21, 1 mg, N = 5): 40.6 h | Tmax, Maximum (Day 21, 1 mg, N = 5): 8.42 h | Css (AUCtau/tau) [3]: 0.0374 µg/mL | terminal rate constant [3]: 0.016 | Cmax [4]: 0.065 µg/mL | Css (AUCtau/tau) [4]: 0.0491 µg/mL | Tmax [4]: 6.05 h | apparent terminal half life (t½) [4]: 50.8 h | terminal rate constant [4]: 0.021 | AUC24hr [4]: 1177 | Css (AUCtau/tau) [5]: 0.038 µg/mL | terminal rate constant [5]: 0.016 | Css (AUCtau/tau) [6]: 0.0379 µg/mL | terminal rate constant [6]: 0.015 | Cmax [7]: 0.035 µg/mL | Css (AUCtau/tau) [7]: 0.0298 µg/mL | Tmax [7]: 2.00 h | apparent terminal half life (t½) [7]: 33.0 h | terminal rate constant [7]: 0.014 | AUC24hr [7]: 716 | Css (AUCtau/tau) [8]: 0.0727 µg/mL | terminal rate constant [8]: 0.016 | Cmax [9]: 0.178 µg/mL | Css (AUCtau/tau) [9]: 0.1264 µg/mL | Tmax [9]: 10.00 h | apparent terminal half life (t½) [9]: 54.3 h | terminal rate constant [9]: 0.020 | AUC24hr [9]: 3034 | Css (AUCtau/tau) [10]: 0.0851 µg/mL | terminal rate constant [10]: 0.016 | Css (AUCtau/tau) [11]: 0.1029 µg/mL | terminal rate constant [11]: 0.015 | Cmax [12]: 0.042 µg/mL | Css (AUCtau/tau) [12]: 0.0257 µg/mL | Tmax [12]: 2.00 h | apparent terminal half life (t½) [12]: 34.0 h | terminal rate constant [12]: 0.013 | AUC24hr [12]: 616
SMILES: CC/C(=C(\c1ccc(O)cc1)c1ccc(OCCNC)cc1)c1ccccc1 [(Z)-Endoxifen, (Z)-4-(1-(4-(2-(methylamino)ethoxy)phenyl)-2-phenylbut-1-enyl) phenol]
